Reference: PubChem BioAssay AID743059 (The Scripps Research Institute Molecular Screening Center, 2013)
The source made the active and inactive calls.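 The calls were made as follows: active = EC50 at or below 10 µM; inactive = EC50 above 10 µM.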

What follows are compounds tested against Nuclear hormone receptor DAF-12 (Heterodera glycines) (assay: hgDAF-12 reporter activation EC50 – cell-based, luminescence, HEK293, dose response (AID 743059;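 also: agonist potency for compounds that raise hgDAF-12 reporter luminescence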)). Settings: HEK293 hgDAF-12 reporter, luciferase luminescence.
In the case of `CCNC(=S)NNC(=O)c1cc(-c2ccc(OCC)cc2)nc2ccccc12`, the EC50 is reported as > 67.5 µM (inactive).
With `CCc1sc(C(=O)Nc2ncccc2O)cc1C` the EC50 was “inactive”.
In the case of `Nc1ncc(Br)cc1N=Cc1ccccc1`, the EC50 is reported as > 67.5 µM (inactive).
With `COCCNC(=O)/C(C#N)=C/c1cc(C)n(C2CCCCC2)c1C` the EC50 was > 67.5 µM (inactive).
With `CN(C)c1ccc(N=Nc2nccs2)cc1` the EC50 was > 67.4 µM (inactive).
With `Cn1c(NCc2c[nH]c3ccccc23)nc2ccccc21` the EC50 was > 67.5 µM (inactive).
For `CCc1ccc2oc(-c3cccc(N)c3)nc2c1`, the EC50 was > 67.6 µM (inactive).
In the case of `CN(C)c1ccc2c(=O)c3ccccc3oc2n1`, the EC50 is reported as > 67.6 µM (inactive).
With `Cc1ccc(N/N=C(\C#N)C(=N)N2CCCCCC2)cc1` the EC50 was > 67.5 µM (inactive).
For `Nc1c(-c2cccs2)cnc2c(-c3ccc(F)cc3)cnn12`, the EC50 was > 67.5 µM (inactive).
For `COc1cccc(-c2noc(-c3cccs3)n2)c1`, the EC50 was > 67.6 µM (inactive).
`Cc1ccc(Nc2ncccc2C(N)=O)cc1[N+](=O)[O-]` was tested, and the EC50 was > 67.6 µM (inactive).
`Cc1ccc(/C=N/NC(=O)c2ccoc2C)s1` was tested, and the EC50 was > 67.6 µM (inactive).
`Nc1ccc(C(=O)Nc2ccccc2N)cc1` was tested, and the EC50 was 4.24 µM.
For `Cc1ccc2oc(-c3cccc(N)c3)nc2c1`, the EC50 was > 67.6 µM (inactive).
For `OCc1ccc(N=Nc2ccccc2)cc1`, the EC50 was > 67.5 µM (inactive).
For `CN(C)c1cccc(-c2cnc(N3CCC(C(N)=O)CC3)s2)c1`, the EC50 was > 67.5 µM (inactive).
`O=C(NCC1CCCO1)c1cc(-c2ccccc2F)no1` (configuration not stated) was tested, and the EC50 was “inactive”.
With `OC(c1ccccc1)c1nc(-c2cnc3ccccc3c2)cs1` (configuration not stated) the EC50 was > 67.6 µM (inactive).
With `CC(=Nc1ccccc1)c1sc2ccccc2c1O` the EC50 was > 67.6 µM (inactive).
`Cc1cnc(NC(=O)COc2ccc3c(c2)CCC3)s1` was tested, and the EC50 was > 67.6 µM (inactive).
For `Cc1ccc(-c2nc(Nc3ccccc3)n[nH]2)cc1`, the EC50 was > 67.5 µM (inactive).
`Cc1ccc(-c2nc(-c3ccncc3)no2)cc1C` was tested, and the EC50 was > 67.5 µM (inactive).
`Brc1ccc(-c2noc(-c3ccccn3)n2)o1` was tested, and the EC50 was > 67.5 µM (inactive).
`CCS(=O)(=O)Nc1cc(-c2nc3cccnc3s2)ccc1C` was tested, and the EC50 was > 67.5 µM (inactive).
Compound `O=C(Nc1ncccc1O)c1ccc(C(=O)c2ccccc2)cc1` has an EC50 of 4.55 µM.
In the case of `Cc1cc(-c2nc3cccnc3s2)ccc1NS(=O)(=O)c1cccs1`, the EC50 is reported as > 67.5 µM (inactive).
With `Cc1cc(C)n2c(NC3CCCC3)c(-c3cc4ccccc4o3)nc2n1` the EC50 was > 67.5 µM (inactive).
With `Clc1ccc(CSc2nc3ccncc3[nH]2)cc1` the EC50 was > 67.5 µM (inactive).
For `Clc1cccc(-c2nnc(-c3ccccc3)o2)c1`, the EC50 was > 67.5 µM (inactive).
In the case of `CN1CCN(/C=N/c2sc3c(c2C#N)CCCCC3)CC1`, the EC50 is reported as > 67.5 µM (inactive).
In the case of `Cc1ccnc(NC(=O)/C=C/c2cccs2)c1`, the EC50 is reported as > 67.6 µM (inactive).
`CC(=Nc1cccc(C)c1)c1sc2ccccc2c1O` was tested, and the EC50 was > 67.6 µM (inactive).
With `O=C(/C=C/c1ccccc1)N1CCC(c2ccccc2)C1` (configuration not stated) the EC50 was > 67.5 µM (inactive).
With `O=C(Nc1ccccn1)c1csc2c1CCCC2` the EC50 was > 67.5 µM (inactive).
`O=C(NNCc1ccccc1)c1ccccn1` was tested, and the EC50 was > 67.6 µM (inactive).
In the case of `C(=N\NC1=Nc2cccc3cccc1c23)/c1ccccc1`, the EC50 is reported as > 67.5 µM (inactive).
`C=CCN1C=CC(=C/C=C(/C#N)C(=O)OCC)C=C1` was tested, and the EC50 was > 67.5 µM (inactive).
With `CCOC(=O)c1sc2nc3c(cc2c1N)COC(C)(CC)C3` (configuration not stated) the EC50 was > 67.5 µM (inactive).
With `COC1=C/C(=C/c2c(O)c(C#N)c3ccccn23)C=CC1=O` the EC50 was > 67.5 µM (inactive).
With `O=C(N/N=C/c1cccs1)c1n[nH]c2c1CCC2` the EC50 was > 67.5 µM (inactive).
For `Cc1ccc2nc(-c3ccccn3)oc2c1`, the EC50 was > 67.6 µM (inactive).
`O=C(CCCc1ccccc1)NC12CC3CC(CC(C3)C1)C2` was tested, and the EC50 was > 67.5 µM (inactive).
`Cc1c(C(=O)OC2CCC(C)CC2)[nH]c2c1C(=O)CCC2` (configuration not stated) was tested, and the EC50 was > 67.5 µM (inactive).
For `COc1ccccc1-c1noc(-c2cccs2)n1`, the EC50 was > 67.5 µM (inactive).
For `CCCCCc1nnc(NC(=O)C2=COCCO2)s1`, the EC50 was > 67.6 µM (inactive).
In the case of `Cc1ccc(/C=N/N=C/c2ccc(C)s2)s1`, the EC50 is reported as > 67.5 µM (inactive).
`CN(C)c1ccc(Nc2nc(-c3cccnc3)cs2)cc1` was tested, and the EC50 was > 67.5 µM (inactive).
`Cc1ccnc(NC(=O)CCNS(=O)(=O)c2ccc(C)c(C)c2)c1` was tested, and the EC50 was > 67.6 µM (inactive).
In the case of `O=c1c2ccccc2nnn1CSc1ccccc1F`, the EC50 is reported as > 67.5 µM (inactive).
`Cc1nnc(SCC(=O)Nc2nsc(-c3ccc(C(C)(C)C)cc3)n2)s1` was tested, and the EC50 was > 67.5 µM (inactive).
For `Cc1cc2nn(-c3ccc(F)cc3)nc2cc1N`, the EC50 was > 67.5 µM (inactive).
With `O=c1c2cc(-c3ccccc3)sc2nc2n1CCC2` the EC50 was > 67.5 µM (inactive).
With `Clc1ccc(-c2cn3cc(Cl)ccc3n2)cc1` the EC50 was > 67.6 µM (inactive).
For `Cc1ccnc(NC(=O)C2CCN(S(=O)(=O)c3c(C)c(C)cc(C)c3C)CC2)c1`, the EC50 was > 67.6 µM (inactive).
For `Cc1nn(-c2ccccc2)c(Cl)c1/C=N/Nc1ccc(Cl)c(C(=O)O)c1`, the EC50 was > 67.5 µM (inactive).
In the case of `N/C(=N\OC(=O)c1cc(Br)ccc1Cl)c1ccccn1`, the EC50 is reported as > 67.5 µM (inactive).
`N#Cc1c(Br)n(C2OC(CO)C(O)C2O)c2ncnc(N)c12` (configuration not stated) was tested, and the EC50 was > 67.5 µM (inactive).
`COCCNC(=O)/C(C#N)=C/c1cc(C)n(-c2ccc(C)cc2)c1C` was tested, and the EC50 was > 67.5 µM (inactive).
`N=C1c2ccccc2CN1CC(=O)c1ccccc1` was tested, and the EC50 was > 67.6 µM (inactive).
For `O=C(Nc1ccccc1O)c1ccc(NS(=O)(=O)c2cccc3cccnc23)cc1`, the EC50 was 3.3 µM.
`C(=C\n1nnc2ccccc21)/c1ccccn1` was tested, and the EC50 was > 67.5 µM (inactive).
For `O=c1c2ccccc2cnn1-c1ccc2ccccc2c1`, the EC50 was > 67.5 µM (inactive).
`Oc1ccccc1-c1cc(-c2ccc3c(c2)OCCO3)n[nH]1` was tested, and the EC50 was > 67.6 µM (inactive).
In the case of `Cc1ccc(/C=N/NC(=O)c2ccccn2)s1`, the EC50 is reported as > 67.6 µM (inactive).
For `CC(C)C[C@H](NC(=O)OCC1c2ccccc2-c2ccccc21)C(=O)O`, the EC50 was > 67.5 µM (inactive).
`CN(C)CCNc1ncnc2c1ncn2[C@H]1CN(Cc2cccnc2)C[C@@H](CO)O1` was tested, and the EC50 was > 67.5 µM (inactive).
In the case of `Cc1ccc(NC(=S)NC(=O)C2CCCC2)c(Br)c1`, the EC50 is reported as > 67.5 µM (inactive).
With `O=c1c2ccccc2nnn1CCc1ccccc1` the EC50 was > 67.4 µM (inactive).
In the case of `Cc1cc(NC(=O)c2nn3cccnc3c2Cl)no1`, the EC50 is reported as > 67.5 µM (inactive).
`CSc1ccc(/C=N/Nc2ccc(Cl)c(C(=O)O)c2)cc1` was tested, and the EC50 was > 67.5 µM (inactive).
In the case of `O=[N+]([O-])c1cccnc1NCCNc1ncc(C(F)(F)F)cc1Cl`, the EC50 is reported as > 67.5 µM (inactive).
With `Nc1nc(Nc2ccc(Cl)cc2)nc2ccccc12` the EC50 was > 67.5 µM (inactive).
With `CCCCSc1ncnc2c1ncn2C1CCCCO1` (configuration not stated) the EC50 was > 67.4 µM (inactive).
With `CC1=CN2C(=N)/C(=C/c3ccco3)C(=O)N=C2S1` the EC50 was > 67.5 µM (inactive).
In the case of `COCC1CCN(Cc2nc(-c3cccs3)no2)C1` (configuration not stated), the EC50 is reported as > 67.5 µM (inactive).
With `Brc1ccc(-c2noc(-c3ccccc3)n2)o1` the EC50 was > 67.6 µM (inactive).
`O=C(Nc1ccc(Cl)cn1)c1cc2ccccc2o1` was tested, and the EC50 was > 67.5 µM (inactive).
`CCOC(=O)N1CCC(NC(=O)c2cc3ccccn3n2)CC1` was tested, and the EC50 was > 67.5 µM (inactive).
In the case of `Cc1cccc(/C(N)=N/OC(=O)c2cccs2)c1`, the EC50 is reported as > 67.5 µM (inactive).
For `CN(C)/C=N/C(=S)Nc1ccc(Cl)cc1`, the EC50 was > 67.5 µM (inactive).
For `COC1=C/C(=C/c2c(N)n3nc(-c4ccc(C)cc4)sc3nc2=O)C=CC1=O`, the EC50 was > 67.5 µM (inactive).
In the case of `O=C(O)c1cc(-c2cccs2)[nH]n1`, the EC50 is reported as > 67.6 µM (inactive).
With `NC(=Nc1ccccc1)NC(=O)c1nc(Cl)c(N)nc1N` the EC50 was > 67.5 µM (inactive).
In the case of `Cc1cc2ncc(-c3ccccc3)nc2cc1C`, the EC50 is reported as > 67.5 µM (inactive).
In the case of `Clc1ccc(Nc2nc(-c3cccs3)cs2)nc1`, the EC50 is reported as > 67.5 µM (inactive).
With `COc1ccc2[nH]c(C(=O)Nc3cccc(C)n3)cc2c1` the EC50 was > 67.5 µM (inactive).
Compound `O=C(NCCCn1ccnc1)c1cc(-c2cccs2)on1` has an EC50 of 9.01 µM.
`Cn1c(O)c(N=NC(=O)c2ccco2)c2ccccc21` was tested, and the EC50 was > 67.5 µM (inactive).
For `Nc1ccc2c(c1)Cc1cc(N)c(Cl)cc1-2`, the EC50 was > 67.4 µM (inactive).
In the case of `Cc1ccc(N=Nc2ccc(O)cc2)c(Br)c1`, the EC50 is reported as > 67.5 µM (inactive).
In the case of `CCc1cc(C(=O)Nc2ncccc2O)sc1C`, the EC50 is reported as > 67.5 µM (inactive).
In the case of `Cc1cc2nc(-c3cccnc3SCC(=O)NCc3ccco3)[nH]c2cc1C`, the EC50 is reported as > 67.6 µM (inactive).
`Cc1ccc(SCCN2CCC(C)CCC2=O)cc1` (configuration not stated) was tested, and the EC50 was > 67.5 µM (inactive).
`Cc1cc(C(=O)CSc2ncccn2)c(C)n1Cc1ccco1` was tested, and the EC50 was > 67.5 µM (inactive).
For `CCN(CC)S(=O)(=O)c1cc(C(=O)OCC(=O)Nc2ccc(-c3nc4ccc(C)cc4s3)cc2)ccc1F`, the EC50 was > 67.5 µM (inactive).
For `CS(=O)(=O)c1ccc2nc(NC(=O)Nc3ccccc3F)sc2c1`, the EC50 was > 67.5 µM (inactive).
For `C=CCN1C(=O)[C@@H](CC(=O)N2CCSCC2)[C@]2(C(=O)OC)CCCCC=C12`, the EC50 was > 67.5 µM (inactive).
`O=c1[nH]c(=O)n(C2CC(O)C(CO)O2)cc1I` (configuration not stated) was tested, and the EC50 was > 67.6 µM (inactive).
With `C/C(=N\NC(=O)OC(C)(C)C)c1ccc[nH]1` the EC50 was > 67.6 µM (inactive).
In the case of `Cc1ccc(/C(N)=N/OC(=O)c2ccco2)cc1`, the EC50 is reported as > 67.5 µM (inactive).
With `Cc1cccc(/C(N)=N/OC(=O)c2ccco2)c1` the EC50 was > 67.6 µM (inactive).
In the case of `Cc1cccc(/C=C\c2nc3ccccc3c(=O)[nH]2)c1`, the EC50 is reported as > 67.5 µM (inactive).
In the case of `Cc1ccc(-c2onc3ccc(C(=O)O)cc23)cc1`, the EC50 is reported as > 67.6 µM (inactive).
In the case of `CN(C)c1ccc(C(C#N)c2ccccc2)nn1` (configuration not stated), the EC50 is reported as > 67.5 µM (inactive).
`Cc1ccc(SCCSc2ncccn2)cc1` was tested, and the EC50 was > 67.5 µM (inactive).
For `COc1cccc(-c2nc(-c3ccc(Br)o3)no2)c1`, the EC50 was > 67.5 µM (inactive).
For `Clc1ccc(OCCSc2ncccn2)c(Br)c1`, the EC50 was > 67.5 µM (inactive).
In the case of `COCCNc1nc(-c2cc3ccccc3o2)cs1`, the EC50 is reported as > 67.5 µM (inactive).
For `COc1cccc(/C=C/c2ccc3cccc(O)c3n2)c1`, the EC50 was > 67.5 µM (inactive).
In the case of `CCSCC(C)(C)n1[nH]c2ccccc2c1=O`, the EC50 is reported as > 67.6 µM (inactive).
`COc1cccc(-c2nc3ccccc3s2)c1` was tested, and the EC50 was > 67.5 µM (inactive).
